Assay results: article PMC10411393 (Journal of medicinal chemistry, 2022)

What was measured:
HeLa cells = assay: MTS cell proliferation assay in asynchronously growing HeLa cells; format: cell-based, human; settings: treated 2 days
Plk1 = settings: read-out: IC50 against Plk1; cited from earlier work

Substance | inhibition of cell proliferation (MTS) (HeLa cells) | IC50 (Plk1) [nM]
PLHST | failed to show any detectable level of cell cytotoxicity | 
PLH*SpT |  | 17
